Laboratory results published in patent US5089623A, “Certain imidate insecticides” (Imperial Chemical Industries Plc, priority 1990, dated 1992).

How the values were obtained:
Type in all cases: in vivo
[1] = system: Housefly [Musca domestica]; experiment: Housefly insecticidal test (HF); conditions: per 25 female houseflies, 48 hours
[2] = system: Tobacco Budworm [Heliothis virescens (Fabricius)]; experiment: Tobacco budworm contact test (TBW-C); conditions: second-instar larvae, 5 days, percent in solution
Description: The compounds in Tables 1 and 2 above were tested for insecticidal activity using the following testing procedures. LC50 values, based on the results of these tests and calculated according to dosage-mortality curves, are expressed in Table 3.
Tobacco Budworm [Heliothis virescens (Fabricius)]
(a) Contact: Test compounds were diluted in a 50-50 acetonewater solution. Cotton (Gossypium sp.) cotyledons were immersed in the test solutions for 2-3 seconds and placed on a wire screen to dry. The dried leaves were placed in petri dishes containing a moistened piece of filter paper and infested with 5 second-instar tobacco budworm larvae. The dishes were placed in a high humidity chamber for 5 days, and percent mortality of the larvae recorded. Test concentrations ranged from 0.1% downward. The LC-50 values are expressed below in Table 3 under the heading "TBW-C" in terms of percent of the test compound in the solution.

[3] = system: Tobacco Budworm [Heliothis virescens (Fabricius)] eggs; experiment: Tobacco budworm egg test (TBW-E); conditions: percent in solution
[4] = system: Cabbage Looper [Trichoplusia ni (Hubner)]; experiment: Cabbage looper test (CL); conditions: second-instar larvae, 3-5 days, percent in solution
[5] = system: Aster Leafhopper [Macrosteles fascifrens (Stal)]; experiment: Aster leafhopper test (LH); conditions: adults/nymphs, 48 hours, percent in solution
[6] = system: Maize weevil [Sitophilus Zeamais (Motschulsky)]; experiment: Maize weevil test (MW); conditions: adult weevils, treated corn seeds, 48 hours, percent in solution
Procedure, shortened: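 Adult weevils (10) were placed with four corn seeds that had been dipped 2-3 s in compound dissolved in 50:50 acetone:water, then dried, and held at about 25° C. Mortality was scored at 48 h. LC50 was taken from dosage-mortality curves and expressed as percent compound in solution, from a 0.01% top concentration.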

SMILES | LC50 HF [1] | LC50 TBW C [2] | LC50 TBW E [3] | LC50 CL [4] | LC50 LH [5] | LC50 MW [6]
COc1ccc(N=C(OCc2cccc(Oc3ccccc3)c2)C(C)C)cc1Cl [Compound 95] | 10 µg | 0.004% | 0.025% | 0.0025% | – | –
Fc1ccc(N=C(OCc2cccc(Oc3ccccc3)c2)C(Cl)Cl)cc1 [Compound 44] | 3 µg | < 0.1% | 0.06% | – | – | –
CC(C)C(=Nc1ccc(I)cc1)OCc1cccc(Oc2ccc(F)cc2)c1 [Compound 234] | 38 µg | 0.0013% | 0.09% | 0.00045% | 0.003% | > 0.01%
C#CCc1c(F)c(F)c(COC(=Nc2ccc(F)c(Cl)c2)C(C)C)c(F)c1F [Compound 520] | 5.5 µg | 0.00075% | > 0.1% | > 0.1% | 0.0003% | 0.0042%
CC(C)C(=Nc1ccc(Cl)c(Cl)c1)OCc1cccc(Oc2ccc(F)cc2)c1 [Compound 37] | 21 µg | 0.0005% | 0.014% | 0.0004% | 0.002% | 0.009%
CCC(C)C(=Nc1ccc(F)c(Cl)c1)OCc1cccc(Oc2ccc(F)cc2)c1 (stereo not shown) [Compound 210] | 35 µg | 0.0015% | 0.045% | 0.00028% | – | > 0.01%
CC(C)C(=Nc1c(F)c(F)c(F)c(F)c1F)OCc1cccc(Oc2ccccc2)c1 [Compound 51] | 25 µg | 0.0025% | 0.067% | 0.001% | 0.001% | –
CC(C)(C)c1ccc(N=C(OCc2cccc(Oc3ccccc3)c2)C(Cl)Cl)cc1 [Compound 140] | > 100 µg | > 0.1% | > 0.1% | < 0.1% | – | –
C=C(C)C(=Nc1ccc(C(F)(F)F)cc1)OCc1ccc(F)c(Oc2ccc(Cl)cc2)c1 [Compound 432] | < 100 µg | < 0.1% | 0.032% | 0.0012% | – | > 0.01%
Cc1ccc(F)cc1N=C(OCc1cccc(Oc2ccccc2)c1)C(C)C [Compound 74] | 25 µg | 0.0025% | 0.025% | 0.005% | – | –
Cc1ccc(N=C(OCc2cccc(Oc3ccccc3)c2)C(C)C)cc1F [Compound 75] | 5 µg | 0.0075% | 0.01% | 0.0025% | 0.0008% | –
CC(C)C(=Nc1cc(F)cc(F)c1)OCc1cccc(Oc2ccc(F)cc2)c1 [Compound 199] | 8 µg | 0.003% | > 0.1% | 0.0006% | – | > 0.01%
ClC(Cl)C(=Nc1ccccc1)OCc1cccc(Oc2ccccc2)c1 [Compound 41] | 4.5 µg | 0.0035% | 0.04% | 0.015% | – | –
CC(=O)c1ccc(N=C(OCc2cccc(Oc3ccccc3)c2)C(C)C)cc1 [Compound 147] | 10 µg | 0.0075% | > 0.1% | 0.01% | – | –
COc1ccccc1N=C(OCc1cccc(Oc2ccccc2)c1)C(C)C [Compound 145] | > 100 µg | 0.05% | > 0.1% | 0.05% | > 0.05% | –
Cc1c(F)cccc1N=C(OCc1cccc(Oc2ccccc2)c1)C(C)C [Compound 73] | 25 µg | 0.005% | 0.025% | 0.004% | – | –
CC(C)C(=Nc1cccc(C(F)(F)F)c1)OCc1ccnc(Oc2ccc(Cl)cc2)c1 [Compound 517] | 80 µg | – | 0.04% | 0.0008% | > 0.05% | > 0.01%
CC(C)C(=Nc1ccc(F)c(Cl)c1)OCc1cccc(Nc2ccc(F)cc2)c1 [Compound 512] | 35 µg | – | > 0.1% | 0.003% | > 0.05% | > 0.01%
CC(C)(C)C(=Nc1ccc(F)c(Cl)c1)OCc1cccc(Oc2ccc(F)cc2)c1 [Compound 204] | > 100 µg | 0.004% | > 0.1% | 0.0023% | – | > 0.01%
CC(C)C(=Nc1cccc(C(C)(C)C)c1)OCc1cccc(Oc2ccc(F)cc2)c1 [Compound 350] | > 100 µg | – | > 0.1% | 0.0045% | > 0.05% | > 0.01%
CC(C)C(=Nc1ccc2c(c1)OC(C)(C)O2)OCc1cccc(Oc2ccc(F)cc2)c1 [Compound 219] | 50 µg | 0.004% | 0.027% | 0.00025% | – | > 0.01%
CC(C)C(=Nc1ccc(C(C)(C)C)cc1)OCc1cccc(Oc2ccccc2)c1 [Compound 153] | > 100 µg | – | 0.1% | 0.004% | 0.0005% | > 0.01%
CC(C)C(=Nc1ccc2c(c1)OCO2)OCc1cccc(Oc2ccc(Cl)cc2)n1 [Compound 466] | 13 µg | – | > 0.1% | 0.0008% | > 0.05% | 0.01%
CCC(=Nc1ccc(F)c(F)c1)OCc1coc(Cc2ccccc2)c1 [Compound 524] | 5.2 µg | – | > 0.1% | > 0.1% | > 0.05% | > 0.01%
CC(C)C(=Nc1cccc(C(F)(F)F)c1)OCc1ccc(F)c(Oc2ccc(Cl)cc2)c1 [Compound 266] | 10 µg | 0.0007% | 0.06% | 0.00016% | – | –
CC(C)C(=Nc1cccc(C(F)(F)F)c1)OCc1cccc(Oc2ccc(Cl)cn2)c1 [Compound 518] | > 100 µg | – | > 0.1% | 0.00075% | > 0.05% | > 0.01%
COc1ccc(N=C(OCc2cccc(Oc3ccccc3)c2)C(C)C)c(OC)c1 [Compound 146] | 40 µg | 0.025% | > 0.1% | 0.017% | – | –
CCS(=O)(=O)c1ccc(N=C(OCc2cccc(Oc3ccccc3)c2)C(C)C)cc1Cl [Compound 112] | > 100 µg | – | > 0.1% | 0.025% | > 0.05% | > 0.01%
Cc1cc(Cl)ccc1N=C(OCc1cccc(Oc2ccccc2)c1)C(C)C [Compound 96] | 35 µg | 0.0025% | 0.025% | 0.003% | – | –
CC(C)(C)C(=Nc1ccc(F)c(F)c1)OCc1coc(Cc2ccccc2)c1 [Compound 525] | > 100 µg | – | > 0.1% | < 0.1% | > 0.05% | > 0.01%
